From US10806785B2, “Immunomodulator compounds and methods of use” (Incyte Corporation, priority 2016, dated 2020) come the findings set out here.

Residues, ends and D or L forms follow the SMILES beside them. Where only a bound is given, the exact number is not on record here.

Test [1] deals with T1, PD-1/PD-L1 (Homo sapiens (Human), UniProt Q9NZQ7). Description: PD-1/PD-L1 binding assay (Alphascreen). Here is the method: Binding assays were conducted in a low volume white 384-well polystyrene plate in a final volume of 20 μL. Compounds to be analyzed were first serially diluted in DMSO and added to the plate wells before the addition of other reaction components. The final concentration of DMSO in the assay was 1%. The assay was carried out at 25° C. in the PBS buffer (pH 7.4) with 0.05% Tween-20 and 0.1% BSA. Recombinant human PD-L1 protein (19-238) with a His-tag at the C-terminus was purchased from AcroBiosystems (PD1-H5229). Recombinant human PD-1 protein (25-167) with Fc tag at the C-terminus was also from AcroBiosystems (PD1-H5257). PD-L1 and PD-1 proteins were diluted in the assay buffer (final concentration −0.67 and 0.20 nM respectively) and 10 μL was added to the plate well. Plates were centrifuged and proteins were preincubated with compounds for 40 minutes. The incubation was followed by the addition of 10 μL of assay buffer supplemented with Alphascreen Ni chelate donor beads (PerkinElmer-AS101D) and Protein A Acceptor beads (PerkinElmer-6760137) at final concentration 2.5 μg/mL under reduced light. After plate sealing, the plate was incubated in the dark at room temperature for 120 minutes before reading on a PHERAstar FS plate reader (BMG Labtech). […]

In test [2] the target is T1, PD-1/PD-L1. The test is described as follows: PD-1/PD-L1 binding assay (HTRF). Summed up:
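HTRF read-out (665/620 nm) after 60 min at 25 °C with 1 nM Eu anti-human IgG and 20 nM APC anti-His. Beforehand, inhibitors were preincubated 40 min with Fc-PD-1 (25-167, […] as listed) and His-PD-L1 (19-238, 10 nM) in PBS pH 7.4 with Tween-20, BSA, 1% DMSO; IC50 from log-concentration curve.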

T1 sequence (Q9NZQ7 19-238): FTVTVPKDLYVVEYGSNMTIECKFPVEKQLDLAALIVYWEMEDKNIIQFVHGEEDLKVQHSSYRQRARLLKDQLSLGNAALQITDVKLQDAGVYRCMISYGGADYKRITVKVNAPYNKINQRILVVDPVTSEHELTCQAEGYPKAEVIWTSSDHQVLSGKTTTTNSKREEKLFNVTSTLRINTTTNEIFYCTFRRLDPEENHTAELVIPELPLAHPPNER

Compound `CCCC[C@H]1C(=O)N(C)CC(=O)N[C@@H](CC(=O)O)C(=O)N[C@@H](C(C)C)C(=O)N(C)[C@@H](Cc2ccccc2)C(=O)N[C@@H](Cc2ccc(O)cc2)C(=O)N(C)CC(=O)N[C@@H](Cc2c[nH]c3ccccc23)C(=O)N[C@@H](Cc2ccc(O)cc2)C(=O)N[C@@H](CC(C)C)C(=O)N[C@H](C(=O)NCC(N)=O)CSCC(=O)N[C@@H](Cc2ccccc2)C(=O)N(C)[C@@H](Cc2ccccc2)C(=O)N1C` [Cpd 27] (HELM PEPTIDE1{[O=C(C[*:3])[*:2]].F.[meF].[CCCC[C@@H](C(=O)[*:2])N(C)[*:1]].[Sar].D.V.[meF].Y.[Sar].W.Y.L.C.G.[am]}$PEPTIDE1,PEPTIDE1,1:R3-14:R3$$$V2.0) gave a concentration for half-maximal inhibition (IC50) at PD-1/PD-L1 [1] of more than 1 nM.

On PD-1/PD-L1 [2], `Cc1c(NC(=O)c2nc3c(n2C)CCN(C2CCCC2)C3)cccc1-c1cccc(NC(=O)c2nc3c(n2C)CCN(CC[C@H]2CC[C@H](C(=O)O)CC2)C3)c1Cl` [Example 130, trans-4-(2-(2-((2-chloro-3′-(5-cyclopentyl-1-methyl-4,5,6,7-tetrahydro-1H-imidazo[4,5-c]pyridine-2-carboxamido)-2′-methyl-[1,1′-biphenyl]-3-yl)carbamoyl)-1-methyl-1,4,6,7-tetrahydro-5H-imidazo[4,5-c]pyridin-5-yl)ethyl)cyclohexane-1-carboxylic acid] had a half-inhibitory concentration (IC50) not above 10 nM.

With `CCN(C)CC(=O)N1Cc2nc(-c3cccc(-c4cccc(NC(=O)c5nc6c(n5C)CCN(CCC5CCC(C(=O)O)CC5)C6)c4Cl)c3Cl)oc2C1` (stereo not shown) [Compound 169, 4-(2-(2-((2,2′-dichloro-3′-(5-(N-ethyl-N-methylglycyl)-5,6-dihydro-4H-pyrrolo[3,4-d]oxazol-2-yl)-[1,1′-biphenyl]-3-yl)carbamoyl)-1-methyl-1,4,6,7-tetrahydro-5H-imidazo[4,5-c]pyridin-5-yl)ethyl)cyclohexane-1-carboxylic acid], the half-maximal inhibitory concentration (IC50) at PD-1/PD-L1 [2] was not above 10 nM.

For `Cc1c(NC(=O)c2nc3c(n2C)CCN(C2CCC(C)(C(=O)O)CC2)C3)cccc1-c1cccc(NC(=O)c2nc3c(n2C)CCN(C2CCCCC2)C3)c1Cl` (stereo not shown) [Example 107, 4-(2-((2′-chloro-3′-(5-cyclohcxyl-1-methyl-4,5,6,7-tetrahydro-1H-imidazo[4,5-c]pyridine-2-carboxamido)-2-methyl-[1,1′-biphenyl]-3-yl)carbamoyl)-1-methyl-1,4,6,7-tetrahydro-5H-imidazo[4,5-c]pyridin-5-yl)-1-methylcyclohexane-1-carboxylic acid], at PD-1/PD-L1 [2], the IC50 is not above 10 nM.

For the compound `Cc1c(-c2nc3c(o2)CN(C(=O)CN[C@@H](C)CO)C3)cccc1-c1cccc(NC(=O)c2nc3c(n2C)CCN(C)C3)c1Cl` [Compound 164, (S)—N-(2-chloro-3′-(5-((S)-(1-hydroxypropan-2-yl)glycyl)-5,6-dihydro-4H-pyrrolo[3,4-d]oxazol-2-yl)-2′-methyl-[1,1′-biphenyl]-3-yl)-1,5-dimethyl-4,5,6,7-tetrahydro-1H-imidazo[4,5-c]pyridine-2-carboxamide], at PD-1/PD-L1 [2], the IC50 was not above 10 nM.

Take `CC(C)N1CCc2c(nc(C(=O)Nc3cccc(-c4cccc(NC(=O)c5nc6c(n5C)CCN(CC[C@H]5CC[C@H](C(=O)O)CC5)C6)c4C#N)c3Cl)n2C)C1` [Compound 155, trans-4-(2-(2-((2′-chloro-2-cyano-3′-(5-isopropyl-1-methyl-4,5,6,7-tetrahydro-1H-imidazo[4,5-c]pyridine-2-carboxamido)-[1,1′-biphenyl]-3-yl)carbamoyl)-1-methyl-1,4,6,7-tetrahydro-5H-imidazo[4,5-c]pyridin-5-yl)ethyl)cyclohexane-1-carboxylic acid]: the IC50 at PD-1/PD-L1 [2] was not above 10 nM.

Regarding `Cc1c(NC(=O)c2nc3c(n2C)CCN(CCCNS(C)(=O)=O)C3)cccc1-c1cccc(NC(=O)c2nc3c(n2C)CCN(C)C3)c1Cl` [Example 36, N-(2-chloro-2′-methyl-3′-(1-methyl-5-(3-(methylsulfonamido)propyl)-4,5,6,7-tetrahydro-1H-imidazo[4,5-c]pyridine-2-carboxamido)biphenyl-3-yl)-1,5-dimethyl-4,5,6,7-tetrahydro-1H-imidazo[4,5-c]pyridine-2-carboxamide], the IC50 on PD-1/PD-L1 [2] was not above 10 nM.
